Test results: patent US6593342B1, “Pharmaceutical compositions comprising 2-quinolones” (Laboratoire L. Lafon, priority 1998, dated 2003)

Columns and labels:
U-373MG = experiment: MTT test, U-373MG; format: cell-based; conditions: Homo sapiens, U373 MG, 10^−5 M, 72 hours, control = 100%, mean ± SEM, read-out: average optical density (MTT), percentage relative to control
Procedure: (§1) The influence of the compounds of formulae (I) and (Ia) on non-clonogenic cells was evaluated with the aid of the MTT calorimetric test.
(§2) The principle of the MTT test is based on the mitochondrial reduction, by the metabolically active live cells, of the yellow-colored product MTT (3-(4,5-dimethylthiazol-2-yl)-2,5-diphenyltetrazolium bromide) to a blue-colored product, formazan. The amount of formazan thus obtained is directly proportional to the amount of live cells present in the culture well(s). This amount of formazan is measured by spectrophotometry.
(§3) The cell lines are maintained as a monolayer culture at 37° C. in stoppered culture dishes containing MEM 25 MM HEPES (Minimum Essential Medium) base medium. This medium is suited to the growth of a range of various mammalian diploid or primary cells. This medium is then supplemented with:
(§4) an amount of 5% of FCS (Foetal Calf Serum) decomplemented at 56° C. for 1 hour,
(§5) 0.6 mg/ml of L-glutamine,
(§6) 200 μg/ml of streptomycin,
(§7) The 12 human cancer cell lines which were used were obtained from the American Type Culture Collection (ATCC, Rockville, Md., USA). These 12 cell lines are:
U-373MG (code ATCC: HTB-17) and U-87MG (code ATCC: HTB-14) which are two glioblastomas,
(§8) Experimentally: 100 μl of a cell suspension containing 20 000 to 50 000 (depending on the cell type used) cells/ml of culture medium are inoculated in 96-well flat-bottomed multi-well plates and are incubated at 37° C., under an atmosphere comprising 5% CO2 and 70% humidity. After incubation for 24 hours, the culture medium is replaced with 100 μl of fresh medium containing either the various test compounds at concentrations ranging from 10^−5 to 10^−10 M or the solvent used to dissolve the test products (control condition). After incubation for 72 hours under the above conditions, the culture medium is replaced with 100 μl of a yellowish solution of MTT dissolved at a rate of 1 mg/ml in RPMI 1640. The microplates are reincubated for 3 hours at 37° C. and are then centrifuged for 10 minutes at 400×g. The yellowish solution of MTT is removed and the blue formazan crystals formed in the cell are dissolved in 100 μl of DMSO. The microplates are then shaken for 5 minutes. The intensity of the resulting blue coloration, and thus of the conversion of the yellow product MTT into blue formazan by the cells that are still alive at the end of the experiment, is quantified by spectrophotometry using a Dynatech Immunoassay System machine at wavelengths of 570 nm and 630 nm corresponding, respectively, to the maximum absorption wavelengths of formazan and to the background noise. Software incorporated in the spectrophotometer calculates the average optical density values and the standard deviation (SD) and standard error of mean (SEM) values.
(§9) By way of example, the results of the average optical density, expressed as a percentage relative to the average optical density measured under the control condition (set equal to 100%), obtained at a concentration of 10^−5 M on the 12 abovementioned tumor cell lines are given in Table II.

T24 = experiment: MTT test, T24; format: cell-based; conditions: Homo sapiens, T-24, 10^−5 M, 72 hours, control = 100%, mean ± SEM, read-out: average optical density (MTT), percentage relative to control
Procedure: as §1, §2, §3, §4, §5, §6, §7
(§10) J82 (code ATCC: HTB-1) and T24 (code ATCC: HTB-4) which are two bladder cancers,
as §8, §9

J82 = experiment: MTT test, J82; format: cell-based; conditions: Homo sapiens, 10^−5 M, 72 hours, control = 100%, mean ± SEM, read-out: average optical density (MTT), percentage relative to control
Procedure: as §1, §2, §3, §4, §5, §6, §7, §10, §8, §9

LoVo = experiment: MTT test, LoVo; format: cell-based; conditions: Homo sapiens, 10^−5 M, 72 hours, control = 100%, mean ± SEM, read-out: average optical density (MTT), percentage relative to control
Procedure: as §1, §2, §3, §4, §5, §6, §7
HTC-15 (code ATCC: CCL-225) and LoVo (code ATCC: CCL-229) which are two colorectal cancers,
as §8, §9

MCF7 = experiment: MTT test, MCF7; format: cell-based; conditions: Homo sapiens, 10^−5 M, 72 hours, control = 100%, mean ± SEM, read-out: average optical density (MTT), percentage relative to control
Procedure: as §1, §2, §3, §4, §5, §6, §7
T-47D (code ATCC: HTB-133) and MCF7 (code ATCC: HTB-22) which are two breast cancers,
as §8, §9

[1] = Determination of the maximum tolerated dose (MTD); conditions: mouse, in vivo, ip; B6D2F1/Jico mice; single intraperitoneal administration, 2.5 to 160 mg/kg; survival over 14 days
Procedure: 3.—Determination of the Maximum Tolerated Dose (MTD):
The evaluation of the maximum tolerated dose was carried out on 4- to 6-week-old B6D2F1/Jico mice. The compounds were administered intraperitoneally at increasing doses graduating from 2.5 to 160 mg/kg. The value of the MTD (expressed in mg/kg) is determined from the observation of the survival rate of the animals over a 14-day period after a single administration of the product under consideration. The weight change of the animals is also monitored during this period. When the value of the MTD is greater than 160 mg/kg, the MTD value is likened to 160 mg/kg by default.
The results of the estimation of the maximum tolerated dose (MTD) are collated in the following table: […]

Structure (SMILES)	viability at 10 µM (U-373MG) [%]	viability at 10 µM (T24) [%]	viability at 10 µM (J82) [%]	viability at 10 µM (LoVo) [%]	viability at 10 µM (MCF7) [%]	MTD at 14 day [1] [mg/kg]
COc1ccc(-c2cc3c(OC)cc(OC)cc3[nH]c2=O)cc1 [CRL8246, 5,7-Dimethoxy-3-(4-methoxyphenyl)-1,2-dihydro-2-quinolinone]	96.6 ± 1.2	109 ± 3.5	87.6 ± 2.2	109 ± 7	98.1 ± 1.4	> 160
CCN(CC)C(=O)Cn1c(=O)c(-c2ccc(OC)cc2)cc2c(OC)cc(OC)cc21 [CRL8315, N,N-Diethyl-2-[5,7-dimethoxy-3-(4-methoxy-phenyl)-2-oxo-1,2-dihydro-1-quinolinyl]acetamide]	68.9 ± 2.2	89.6 ± 2.1	65.9 ± 1.3	78.9 ± 2.1	96.2 ± 1.7	> 160
CCN(CC)C(=O)CCn1c(=O)c(-c2ccc(OC)cc2)cc2c(OC)cc(OC)cc21 [CRL8283, N,N-Diethyl-3-[5,7-dimethoxy-3-(4-methoxy-phenyl)-2-oxo-1,2-dihydro-1-quinolinyl]propanamide]	93.4 ± 1.5	72.9 ± 0.9	71.6 ± 2.2	97.3 ± 3.6	76.2 ± 0.9	> 160
COc1ccc(-c2cc3c(OC)cc(OC)cc3n(CCN(C)C)c2=O)cc1 [CRL8316, 1-[2-(Dimethylamino)ethyl]-5,7-dimethoxy-3-(4-methoxyphenyl)-1,2-dihydro-2-quinolinone]	89.8 ± 2.9	94 ± 3.2	26.9 ± 0.9	73.9 ± 2.1	78.9 ± 4	> 160
COc1ccc(-c2cc3c(OC)cc(OC)cc3n(CCc3nnn[nH]3)c2=O)cc1 [CRL8256, 1-[2-(1H-1,2,3,4-Tetrazol-5-yl)ethyl]-5,7-dimethoxy-3-(4-methoxyphenyl)-1,2-dihydro-2-quinolinone]	76.1 ± 2.6	78.2 ± 2.6	77.8 ± 0.8	93 ± 2.3	81.8 ± 1.6	> 160
COc1ccc(-c2cc3c(OC)cc(OC)cc3n(CCC#N)c2=O)cc1 [CRL8247, 3-[5,7-Dimethoxy-3-(4-methoxyphenyl)-2-oxo-1,2-dihydro-1-quinolinyl]propanenitrile]	68.7 ± 2.8	77.8 ± 2.7	55 ± 2.3	66.4 ± 2.5	78.9 ± 1.1	> 160
